Assay results reported in patent US11713335B2, “Aminocoumarin compounds and methods of their use” (President and Fellows of Harvard College, priority 2018, dated 2023).
Values after ≈ are worked out from the molar mass of the structure shown. Where two headings read alike, the source gives them in different places.

Key:
K. pneumoniae 700721 = test: Minimal inhibitory concentration, K. pneumoniae 700721; format: cell-based; settings: 16 hour minimal inhibitory concentration at 37° C., read-out: MIC (μM) K. pneumoniae 700721
Method in brief: (§1)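 MIC, in µM, taken as the lowest compound concentration preventing growth by OD600 after 16 h static incubation at 37 °C. Compound was twofold serially diluted in bacteria grown overnight in LB, or TSA for S. aureus, and diluted 1:100 twice.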

S. aureus RN4220 = test: Minimal inhibitory concentration, S. aureus RN4220; format: cell-based; settings: 16 hour minimal inhibitory concentration at 37° C., read-out: MIC (μM) S. aureus RN4220
Method in brief: as §1

E. coli 25922 = test: Minimal inhibitory concentration, E. coli 25922; format: cell-based; settings: 16 hour minimal inhibitory concentration at 37° C., read-out: MIC (μM) E. coli 25922
Method in brief: as §1

WT E. coli = test: Minimal inhibitory concentration in wild-type E. coli; format: cell-based, Escherichia coli; settings: wild-type E. coli, 37° C., 16 hours, read-out: MIC (μM) in WT E. coli
Method in brief: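 Broth microdilution: saturated LB overnight culture diluted 1:100 twice, compound serially two-fold diluted across the plate from DMSO stock. Static incubation 16 hours at 37° C, OD600 read; MIC taken as lowest concentration inhibiting growth.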

A. baumannii 19606 = test: Minimal inhibitory concentration, A. baumannii 19606; format: cell-based; settings: 16 hour minimal inhibitory concentration at 37° C., read-out: MIC (μM) A. baumannii 19606
Method in brief: as §1

E. coli MC4100 = test: Minimal inhibitory concentration, E. coli MC4100; format: cell-based; settings: 16 hour minimal inhibitory concentration at 37° C., read-out: MIC (μM) E. coli MC4100 ara+
Method in brief: as §1

S. aureus MW2 = test: Minimal inhibitory concentration, S. aureus MW2; format: cell-based; settings: 16 hour minimal inhibitory concentration at 37° C., read-out: MIC (μM) S. aureus MW2 (MRSA)
Method in brief: as §1

E. cloacae 13047 = test: Minimal inhibitory concentration, E. cloacae 13047; format: cell-based; settings: 16 hour minimal inhibitory concentration at 37° C., read-out: MIC (μM) E. cloacae 13047
Method in brief: as §1

[1] = Staphylococcus aureus, RN4220, 16 h
[2] = Acinetobacter baumannii, 19606, 16 h
[3] = Staphylococcus aureus, MRSA, 16 h

| SMILES | MIC (K. pneumoniae 700721) [µM] | MIC (S. aureus RN4220) [µM] | MIC (E. coli 25922) [µM] | MIC (WT E. coli) [µM] | MIC (A. baumannii 19606) [µM] | MIC (E. coli MC4100) [µM] | MIC (S. aureus MW2) [µM] | MIC (E. cloacae 13047) [µM] | MIC (K. pneumoniae 700721; Klebsiella pneumoniae, 700721) [µM] | MIC (S. aureus RN4220; [1]) [µM] | MIC (E. coli 25922; Escherichia coli, 25922, 16 h) [µM] | MIC (WT E. coli; Escherichia coli) [µM] | MIC (A. baumannii 19606; [2]) [µM] | MIC (E. coli MC4100; Escherichia coli, MC4100, 16 h) [µM] | MIC (S. aureus MW2; [3]) [µM] | MIC (E. cloacae 13047; Enterobacter cloacae, 13047) [µM] |
| --- | --- | --- | --- | --- | --- | --- | --- | --- | --- | --- | --- | --- | --- | --- | --- | --- |
| CO[C@@H]1[C@@H](OC(N)=O)[C@@H](O)[C@H](Oc2ccc3c(O)c(NC(=O)c4cc(-c5ccccc5)ccc4O)c(=O)oc3c2C)OC1(C)C [Compound 87] | 40 (≈ 24.8 µg/mL) | 20 (≈ 12.4 µg/mL) | 20 (≈ 12.4 µg/mL) | 18 (≈ 11.2 µg/mL) | >50 | 18 (≈ 11.2 µg/mL) | 20 (≈ 12.4 µg/mL) | >100 |  |  |  |  |  |  |  |  |
| CO[C@@H]1[C@@H](OC(N)=O)[C@@H](O)[C@H](Oc2ccc3c(O)c(NC(=O)c4cccc(-c5ccc(N(C)C)cc5)c4)c(=O)oc3c2C)OC1(C)C [Compound 25] |  |  |  |  |  |  |  |  | > 100 | 0.96 (≈ 0.622 µg/mL) | > 200 | > 300 | 19 (≈ 12.3 µg/mL) | > 200 | 0.96 (≈ 0.622 µg/mL) | > 100 |
| COC1C(OC(N)=O)C(O)C(Oc2ccc3c(O)c(NC(=O)C4CCCC(C5CCCCC5)C4)c(=O)oc3c2C)OC1(C)C (mixture of isomers) [Compound 63] | >100 | 10 | >200 | 300 | >50 | >200 | 5 | >100 |  |  |  |  |  |  |  |  |
| CO[C@@H]1[C@@H](OC(N)=O)[C@@H](O)[C@H](Oc2ccc3c(O)c(NC(=O)c4ccc(O)c(-c5ccc6ccccc6c5)c4)c(=O)oc3c2C)OC1(C)C [Compound 92] | >100 | 0.09 (≈ 0.0604 µg/mL) | >200 | 150 (≈ 101 µg/mL) | 1.16 (≈ 0.778 µg/mL) | 150 (≈ 101 µg/mL) | 0.09 (≈ 0.0604 µg/mL) | >100 |  |  |  |  |  |  |  |  |
| COc1cccc(OC)c1C(=O)Nc1c(O)c2ccc(O[C@@H]3OC(C)(C)[C@H](OC)[C@@H](OC(N)=O)[C@H]3O)c(C)c2oc1=O [Compound 10] |  |  |  |  |  |  |  |  | > 100 | > 100 | > 200 | > 300 | > 50 | > 200 | 85 (≈ 50 µg/mL) | > 100 |
| CO[C@@H]1[C@@H](OC(N)=O)[C@@H](O)[C@H](Oc2ccc3c(O)c(NC(=O)c4ccc(O)c(CC(N)=O)c4)c(=O)oc3c2C)OC1(C)C [Compound 90] | >100 | >100 | >200 | >300 | >50 | >200 | >100 | >100 |  |  |  |  |  |  |  |  |
| CO[C@@H]1[C@@H](OC(N)=O)[C@@H](O)[C@H](Oc2ccc3c(O)c(NC(=O)c4cccc(-c5ccccc5OC(F)(F)F)c4)c(=O)oc3c2C)OC1(C)C [Compound 59] | >100 | 9 (≈ 6.2 µg/mL) | >200 | 40 (≈ 27.5 µg/mL) | >50 | 40 (≈ 27.5 µg/mL) | 5 (≈ 3.44 µg/mL) | >100 |  |  |  |  |  |  |  |  |
| CO[C@@H]1[C@@H](OC(N)=O)[C@@H](O)[C@H](Oc2ccc3c(O)c(NC(=O)c4cccc(-c5cccc(C(F)(F)F)c5)c4)c(=O)oc3c2C)OC1(C)C [Compound 56] | >100 | 0.74 (≈ 0.498 µg/mL) | >200 | >300 | 37 (≈ 24.9 µg/mL) | >200 | 0.46 (≈ 0.309 µg/mL) | >100 |  |  |  |  |  |  |  |  |
| CO[C@@H]1[C@@H](OC(N)=O)[C@@H](O)[C@H](Oc2ccc3c(O)c(NC(=O)c4cc(O)cc(-c5ccccc5)c4)c(=O)oc3c2C)OC1(C)C [Compound 78] | >100 | 5 (≈ 3.1 µg/mL) | 40 (≈ 24.8 µg/mL) | 59 (≈ 36.6 µg/mL) | 40 (≈ 24.8 µg/mL) | 59 (≈ 36.6 µg/mL) | 4 (≈ 2.48 µg/mL) | >100 |  |  |  |  |  |  |  |  |
| COc1cc(C(=O)Nc2c(O)c3ccc(O[C@@H]4OC(C)(C)[C@H](OC)[C@@H](OC(N)=O)[C@H]4O)c(C)c3oc2=O)cc(OC)c1OC [Compound 11] |  |  |  |  |  |  |  |  | > 100 | > 100 | > 200 | > 300 | > 50 | > 200 | > 100 | > 100 |
| CO[C@@H]1[C@@H](OC(N)=O)[C@@H](O)[C@H](Oc2ccc3c(O)c(NC(=O)c4ccccc4)c(=O)oc3c2C)OC1(C)C [Compound 8] | >100 | >100 | >200 | >300 | >50 | >200 | >100 | >100 |  |  |  |  |  |  |  |  |
| CO[C@@H]1[C@@H](OC(N)=O)[C@@H](O)[C@H](Oc2ccc3c(O)c(NC(=O)c4ccc5ccn(C)c5c4)c(=O)oc3c2C)OC1(C)C.Cl [Compound 71] | >100 | 81 | >200 | >300 | >50 | >200 | 41 | >100 |  |  |  |  |  |  |  |  |
| CO[C@@H]1[C@@H](OC(N)=O)[C@@H](O)[C@H](Oc2ccc3c(O)c(NC(=O)c4ccc5c(ccn5C)c4)c(=O)oc3c2C)OC1(C)C.Cl [Compound 73] | >100 | >100 | >200 | >300 | >50 | >200 | 81 | >100 |  |  |  |  |  |  |  |  |
| CO[C@@H]1[C@@H](OC(N)=O)[C@@H](O)[C@H](Oc2ccc3c(O)c(NC(=O)c4cc(O)c(O)c(-c5ccc6ccccc6c5)c4)c(=O)oc3c2C)OC1(C)C [Compound 96] | 76 (≈ 52.2 µg/mL) | 9 (≈ 6.18 µg/mL) | 146 (≈ 100 µg/mL) | >300 | 18 (≈ 12.4 µg/mL) | >200 | 9 (≈ 6.18 µg/mL) | >100 |  |  |  |  |  |  |  |  |
| CO[C@@H]1[C@@H](OC(N)=O)[C@@H](O)[C@H](Oc2ccc3c(O)c(NC(=O)CCc4ccccc4)c(=O)oc3c2C)OC1(C)C [Compound 43] |  |  |  |  |  |  |  |  | > 100 | > 100 | > 200 | > 300 | > 50 | > 200 | > 100 | > 100 |
| CO[C@@H]1[C@@H](OC(N)=O)[C@@H](O)[C@H](Oc2ccc3c(O)c(NC(=O)c4cccc(-c5ccccn5)c4)c(=O)oc3c2C)OC1(C)C [Compound 31] |  |  |  |  |  |  |  |  | > 100 | 41 (≈ 24.8 µg/mL) | > 200 | > 300 | > 50 | > 200 | 41 (≈ 24.8 µg/mL) | > 100 |
| CO[C@@H]1[C@@H](OC(N)=O)[C@@H](O)[C@H](Oc2ccc3c(O)c(NC(=O)c4ccc5ccccc5c4)c(=O)oc3c2C)OC1(C)C [Compound 4] |  |  |  |  |  |  |  |  | > 100 | 22 (≈ 12.7 µg/mL) | > 200 | > 300 | > 50 | > 200 | 22 (≈ 12.7 µg/mL) | > 100 |
| CO[C@@H]1[C@@H](OC(N)=O)[C@@H](O)[C@H](Oc2ccc3c(O)c(NC(=O)C4CC4)c(=O)oc3c2C)OC1(C)C [Compound 13] |  |  |  |  |  |  |  |  | > 100 | > 100 | > 200 | > 300 | > 50 | > 200 | > 100 | > 100 |
| CO[C@@H]1[C@@H](OC(N)=O)[C@@H](O)[C@H](Oc2ccc3c(O)c(NC(=O)c4c[nH]c5ccccc45)c(=O)oc3c2C)OC1(C)C [Compound 17] |  |  |  |  |  |  |  |  | > 100 | 44 (≈ 25 µg/mL) | > 200 | > 300 | > 50 | > 200 | 22 (≈ 12.5 µg/mL) | > 100 |
| CO[C@@H]1[C@@H](OC(N)=O)[C@@H](O)[C@H](Oc2ccc3c(O)c(NC(=O)C45CC6CC(CC(C6)C4)C5)c(=O)oc3c2C)OC1(C)C [Compound 14] |  |  |  |  |  |  |  |  | > 100 | 43 (≈ 25.2 µg/mL) | > 200 | > 300 | > 50 | > 200 | 21 (≈ 12.3 µg/mL) | > 100 |
| CO[C@@H]1[C@@H](OC(N)=O)[C@@H](O)[C@H](Oc2ccc3c(O)c(NC(=O)c4cccc(N5CCOCC5)c4)c(=O)oc3c2C)OC1(C)C [Compound 23] |  |  |  |  |  |  |  |  | > 100 | 82 (≈ 50.3 µg/mL) | > 200 | > 300 | > 50 | > 200 | 82 (≈ 50.3 µg/mL) | > 100 |
